Results on 1 compound are retold here after article PMC9413491, “A Novel and Cross-Species Active Mammalian INDY (NaCT) Inhibitor Ameliorates Hepatic Steatosis in Mice with Diet-Induced Obesity” (Metabolites, 2022).

pIC50: −log10 of the molar value.

The test system of test [1] is fatty acid synthesis in HepG2 cells. Briefly: Fatty acid synthesis assay ([14C] citrate incorporation) in HepG2 cells. In kind it is cell-based, human. The protocol:
We performed the fatty acid synthesis assay in HepG2 cells. We seeded cells into black clear-bottom 96-well plates (Corning 3340 cell plate) 75,000/well and incubated at 37 °C. After 16–24 h, we washed the plates once with 100 µL PBS (+CaCl2 +MgCl2) and added 50 µL assay medium ([…] containing 11 mM glucose, 10 mM HEPES, and 1 nM insulin) per well. Then, we applied test substances in assay medium (10 µL, 5% DMSO) and incubated for 20 min at 37 °C. Thereafter, we added 10 µL assay medium containing [14C] citrate (final concentration 50 µM) and PrestoBlue reagent (1× final concentration; Thermo Fisher Scientific, Waltham, MA, USA) and incubated for 180 min (37 °C, 5% CO2). We measured cell viability (ViewLux instrument, Perkin Elmer). We removed medium by vacuum aspiration and washed cells once with 100 µL PBS (+CaCl2 +MgCl2). We lysed cells with 50 µL lysis buffer (0.1 N NaOH, 0.1 % Triton X-100) and sealed plates with Tape Pads and vortexed. For the saponification reaction, we incubated plates for 16–24 h at 70 °C in a humidified environment. Then, we removed seals and added 200 µL 0.1 N HCl to neutralise the pH. We transferred 150 µL from each into corresponding wells of a 96-well Flash plate (Perkin Elmer) and sealed with TopSeal A (Perkin Elmer). We incubated plates for 4 h at 70 °C and for at least 3 h at room temperature in the dark. We measured [14C] radioactivity (microbeta2, Perkin Elmer). For control samples, we applied 50 mM unlabelled citrate or C75 (Sigma-Aldrich, St. Louis, MO, USA, C5490).

The target of a further test is T1, mouse Nact (Mus musculus, UniProt Q67BT3).
T1 construct: expressed in transfected cells; host or cells: HEK293 (DSMZ), stably transfected, G418 selection
T1 sequence (Q67BT3 1-572): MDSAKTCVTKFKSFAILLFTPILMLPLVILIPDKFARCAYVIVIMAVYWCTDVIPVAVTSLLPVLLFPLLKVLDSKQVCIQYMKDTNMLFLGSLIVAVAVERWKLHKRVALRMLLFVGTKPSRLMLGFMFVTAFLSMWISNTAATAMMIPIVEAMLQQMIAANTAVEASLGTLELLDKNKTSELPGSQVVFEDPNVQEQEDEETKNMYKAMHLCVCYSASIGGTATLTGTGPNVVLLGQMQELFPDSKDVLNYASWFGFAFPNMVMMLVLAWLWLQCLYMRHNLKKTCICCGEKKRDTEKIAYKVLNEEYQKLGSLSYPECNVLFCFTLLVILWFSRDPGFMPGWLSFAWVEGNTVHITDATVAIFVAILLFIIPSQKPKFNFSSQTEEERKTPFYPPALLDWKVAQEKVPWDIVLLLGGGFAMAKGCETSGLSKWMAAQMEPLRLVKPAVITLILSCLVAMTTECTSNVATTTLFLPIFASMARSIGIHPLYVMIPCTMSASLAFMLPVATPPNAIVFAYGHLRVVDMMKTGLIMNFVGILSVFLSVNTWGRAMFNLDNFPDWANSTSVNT
Briefly: [14C] citrate uptake in HEK293 cells recombinantly expressing mouse Nact. The settings on record: HEK293 overexpressing mouse Nact, citrate substrate; read-out: IC50 [14C] citrate uptake, HEK293 (mouse Nact). Type of test: cell-based. The source says:
(§1) We determined activity on human NaCT by measuring citrate uptake into HepG2 cells, which endogenously expressed NaCT [37] and for mouse Nact, using HEK293 cells recombinantly expressing mouse Nact (HEK-Nact). We cloned the mouse Slc13a5 cDNA encoding Nact as described previously.
(§2) For radiometric [14C] citrate uptake assays, we used Cytostar-T plates (Perkin Elmer#RPNQ0166, Waltham, MA, USA). For each assay, we seeded 20,000 HepG2 cells per well on collagen coated 384-well Cytostar-T plates or 5000 HEK293 cells per well on ploy-D-lysine coated 384-well Cytostar-T plates. On the following day, we changed culture medium to assay buffer: 120 mM NaCl, 5.4 mM KCl, 0.8 mM MgSO4, 5 mM glucose, 1.8 mM CaCl2, 25 mM Hepes, 25 mM MES, pH 6.5 (human) and pH 7.5 (mouse). We preincubated cells with compounds at 37 °C for 20 min, after which we added [14C] citrate (3 µM for HEK cells and 10 µM for HepG2 cells) and incubated cells for 50 min at 37 °C. After cooling down for 15 min at 4 °C, we measured the counts using a Microbeta2 reader system (Perkin Elmer).

The subject of a further test is DIO mice. Put plainly: 7-day treatment of diet-induced obesity (DIO) mice. The settings on record: 15 mg/kg twice daily, 7 days, p < 0.001 pair-fed, p < 0.05 vehicle. In kind it is in vivo, mouse.
The next test has as its target T2, human NaCT (Homo sapiens, UniProt Q86YT5).
T2 construct: citrate uptake into HepG2 cells, which endogenously expressed NaCT; host or cells: HepG2
Briefly: [14C] citrate uptake in HepG2 cells endogenously expressing human NaCT. In kind it is cell-based.
Source text: as §1, §2

T2 sequence (Q86YT5 whole entry): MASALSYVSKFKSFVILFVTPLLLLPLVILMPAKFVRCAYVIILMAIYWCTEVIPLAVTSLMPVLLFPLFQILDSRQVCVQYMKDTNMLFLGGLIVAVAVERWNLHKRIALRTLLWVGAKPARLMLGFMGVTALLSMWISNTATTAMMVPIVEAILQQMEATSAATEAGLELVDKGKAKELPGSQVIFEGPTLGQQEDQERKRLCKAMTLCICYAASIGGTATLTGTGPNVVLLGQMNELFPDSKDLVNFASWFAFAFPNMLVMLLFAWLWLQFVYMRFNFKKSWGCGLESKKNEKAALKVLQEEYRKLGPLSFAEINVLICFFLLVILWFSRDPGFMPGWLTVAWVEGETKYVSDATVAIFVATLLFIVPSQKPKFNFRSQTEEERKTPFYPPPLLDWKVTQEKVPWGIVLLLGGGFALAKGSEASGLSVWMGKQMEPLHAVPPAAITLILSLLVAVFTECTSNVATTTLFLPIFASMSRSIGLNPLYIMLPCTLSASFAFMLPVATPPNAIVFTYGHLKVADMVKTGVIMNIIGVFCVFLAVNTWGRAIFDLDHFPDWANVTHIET

Broadly, the pIC50 is the IC50 on a negative log10 scale, so that one unit is a factor of ten. As for `O=C(Nc1cc(Cl)cc(C(F)(F)F)c1)OCCC(F)(F)F` [ETG-5773], the “IC50 difference in fatty acid synthesis versus PF-06649298” value in test [1] (ETG-5773 compared to PF-06649298, HepG2) is on record as “around 40 fold”. Besides, the pIC50 in test [1] (Homo sapiens, HepG2, [14C] citrate incorporation, read-out: IC50 fatty acid synthesis, HepG2) was 6.00; on mouse Nact, 6.74; against human NaCT (HepG2, human NaCT, citrate substrate), 6.80. In addition, the “Plasma β-hydroxybutyrate (β-HBA) concentrations vs pair-fed and vehicle” value in the test with DIO mice was “significantly increased”. Besides, the “In vitro activity relative to PF-06649298” value at human NaCT (ETG-5773 more active than PF-06649298) is “more than 100 fold”.
